Test results taken from patent publication US8754233B2, “Pyrazolylbenzothiazole derivatives and their use as therapeutic agents” (Dermira (Canada), Inc., priority 2002, dated 2014).

Tests used:
[1] = tested on: ConA 1° splenocytes; test: Survival of ConA 1° splenocytes (cytotoxicity by MTS staining); assay type: cell-based, mouse; conditions: ConA-stimulated splenocytes
[2] = tested on: IFNg on ConA 1° splenocytes; test: Inhibition of IFNγ release from ConA-stimulated splenocytes; assay type: cell-based, mouse; conditions: ConA-stimulated Balb/c splenocytes, 18-24 hours, ELISA
Description: T-lymphocytes obtained from mice spleens are a suitable sample for studying the activation properties of this immunologically important cell type. T-lymphocytes are the main regulators for inflammation. Concanavalin A (ConA) is an effective activator of T-lymphocytes, which allows T-lymphocytes to proliferate and produce inflammatory cytokines, such as Interferon (IFNγ) and regulatory cytokines, such as Interleukin 10 (IL-10).
The spleens were transferred onto mesh screen containing 10 ml of ice cold RPMI-5 (1× sodium pyruvate and 5% FBS) and gently ground with a pestle. The cell suspensions were centrifuged at 1500 rpm for 6 minutes at 4° C. […] The supernatant was discarded and the pellet washed two additional times. The cells were resuspended in RPMI-5 and the cell suspensions combined. The cells were counted and their concentration was adjusted to 2.8×10^6 cells/ml using RPMI-5.
The working concentration of ConA was […]. A 20× working concentration of Concanavalin A was […] was prepared using RPMI-5. The test compounds, dimethylsulfoxide (DMSO) negative vehicle control and staurosporine positive control were diluted twenty times using RPMI-5. Ten μL each of DMSO and staurosporine were combined with 180 μl of medium containing splenocytes in the wells, and 10 μl of 50 μg/ml ConA was immediately added. Medium without ConA was added to the control wells. […] The plates were incubated at 37° C. in 5% CO2 in humidified conditions overnight (18-24 hours) for INFγ.
At the completion of the stimulation described above, the plates were spun at 2000 rpm for 10 minutes. The supernatants (100 μl) from each well were transferred to fresh plates for INFγ analysis by ELISA.
INFγ levels in the supernatants from stimulated lymphocytes were determined with PharMingen's OptEIA™ INFγ Kit (PharMingen) according to manufacturer's directions. The data, shown in Table 2 infra, is represented as a percentage of INFγ inhibition by the following formula: INFγ inhibition=100−(AVG treatment/AVG DMSO control)*100.

Structure (SMILES) | IC50 [1] [µM] | IC50 [2] [µM]
COc1cc2sc(-c3c(N4CCNCC4)n[nH]c3N)nc2cc1F [4-(5-Fluoro-6-methoxybenzothiazole)-5-piperizin-1-yl-2H-pyrazol-3-ylamine] | 17.5 | 6.1
COc1cc2sc(-c3c(NCCN(C)C)n[nH]c3N)nc2cc1F [N^3-(2-Dimethylaminoethyl)-4-(5-fluoro-6-methoxybenzothiazole)-1H-pyrazole-3,5-diamine] | > 25 | 11
